Measured values as given in the METLIN SMRT retention time set (Domingo-Almenara et al. 2019).

Assay: gradient 5% acetonitrile 3 min, to 50% in 2 min, to 85% in 15 min, held 3 min, 100 µL/min
Settings: column: Zorbax Extend-C18 2.1 x 50 mm; eluents: water / acetonitrile, 0.1% formic acid
How it was run: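 Using water and acetonitrile that each contained 0.1% formic acid, mixtures of ~100 pure standards were separated at 100 μL/min on a Zorbax Extend-C18 column (2.1 × 50 mm, 1.8 μm). The HPLC fed a quadrupole time-of-flight mass spectrometer working in positive and negative ionization mode, with dead and dwell volumes of 40 μL and 900 μL. Data were acquired over 3 months. Retention time was read from computationally picked adduct peaks after manual inspection of each.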

Row | RP-LC retention time | SMILES
1 | 570 s | CNC(=O)C1CCN(c2nc3ncn(CC(=O)NC(C)C)c(=O)c3s2)CC1
2 | 885 s | COc1ccc(S(=O)(=O)N2CCC(C(=O)NCc3csc(-c4ccccc4)n3)CC2)cc1
3 | 771 s | COc1ccc(C(CC(=O)N2CCCCC2)N2Cc3ccccc3C2=O)cc1OC (configuration not stated)
4 | 754 s | CC(C)Oc1ccc(CNC(=O)c2ccc3c(c2)nc2n3CCN(C(C)C)C2=O)cc1
5 | 1010 s | Cc1cc(=O)n(CC(=O)N2CCN(c3ccc(F)cc3)CC2)c(-c2ccc(F)cc2)n1
6 | 721 s | COc1ccccc1CCC(=O)NC(C(=O)Nc1nc2ccccc2[nH]1)C(C)C (configuration not stated)
7 | 736 s | CC1(C(=O)N2CC=C(c3ccccc3)CC2)CCCCC(=O)N1 (configuration not stated)
8 | 686 s | COC[C@@H]1OCCN(S(=O)(=O)c2cn(C)cn2)[C@H]1c1ccccc1
9 | 829 s | O=C(N[C@H]1C[C@@H]2C[C@H]1N(C(=O)COc1cccc(Cl)c1)C2)c1ccccc1
10 | 883 s | O=C(NCCC1CCN(S(=O)(=O)c2ccccc2)CC1)Nc1ccc(F)cc1
11 | 631 s | COc1ccc(OC)c(NC(=O)C2(CCO)CCN(c3ncccn3)C2)c1 (configuration not stated)
12 | 649 s | CC1CCC2(CC1)N=C(N1CCN(c3ncccn3)CC1)NC(=O)C2C#N (configuration not stated)
13 | 734 s | Cc1cc(OCC(=O)Nc2ccccc2C(F)(F)F)nc(N2CCCC(C)C2)n1 (configuration not stated)
14 | 585 s | Cc1nc2ccn(Cc3ccco3)c(=O)c2cc1C(=O)NCCN1CCOCC1
15 | 800 s | O=C(c1ccc(F)c(Cl)c1)N1CCC(n2c(-c3ccco3)nc3cccnc32)C1 (configuration not stated)
16 | 666 s | COc1cccc(CNC(=O)Cn2cnc3nc(N4CCCC(C(=O)NC5CC5)C4)sc3c2=O)c1 (configuration not stated)
17 | 562 s | CO[C@H]1C(=O)N(C(C)C)[C@H]1C1CCN(C(=O)Cn2ccnc2)CC1
18 | 630 s | CC(C)Oc1ccccc1CN1C[C@@H]2C(=O)N(CCCN3CCCC3=O)C(=O)[C@@H]2C1
19 | 788 s | CC(C)n1nc(CNC(=O)c2ccco2)c2ccccc21
20 | 598 s | Cc1ccc(NC(=O)N2CCCC2c2nc(-c3ccccc3C)no2)cc1 (configuration not stated)
21 | 652 s | CC(C)CN1CCN(S(=O)(=O)c2ccc(-c3nnc(C(C)C)o3)o2)CC1
22 | 979 s | CC(C)Cn1ccc2c(cc(C(=O)Nc3ccc(Br)cc3)n2C)c1=O
23 | 939 s | CCc1noc(NC(C)=O)c1-c1ccc(OC)c(S(=O)(=O)NC2CCCCCCC2)c1

Row | RP-LC retention time | SMILES
24 | 827 s | COc1ccc(NC(=O)N2CCCC2c2nc(-c3cccc(C)c3)no2)cc1 (configuration not stated)
25 | 788 s | CCCC(=O)Nc1ccc(-n2cnc(C(=O)N3CCN(c4ccccc4F)CC3)c2)nc1
26 | 932 s | COc1ccc(C(=O)Nc2nc(-c3ccc4c(c3)N(C)C(=O)C(C)O4)cs2)cc1OC (configuration not stated)
27 | 972 s | Cc1ccc(Cl)cc1N1CCN(C(=O)c2csc(C(=O)NC3CC3)n2)CC1
28 | 643 s | CN1CCN(C(=O)c2csc(N3CCN(c4ccc(F)cc4)CC3)n2)CC1
29 | 834 s | O=C(c1cc(F)ccc1Cl)N1CCN(c2ncccc2-c2nnc(C3CC3)o2)CC1
30 | 577 s | COc1cccc(CNC(=O)Cn2ccnc2-c2ccnc(N3CCCC3)c2)c1
31 | 899 s | CC(C)NC(=O)c1ccc(OCC2CCN(C(=O)c3ccccc3C(F)(F)F)CC2)cc1
32 | 849 s | COc1cccc(CNC(=O)Cn2nc3c(Oc4ccc(Cl)cc4)nccn3c2=O)c1
33 | 858 s | COc1ccccc1-c1noc(C2CCCN2C(=O)NC2CCCCC2)n1 (configuration not stated)
34 | 638 s | CCC1CCCCN1CCCNC(=O)c1c(N2CCCC2=O)c2cc(OC)ccc2n1C (configuration not stated)
35 | 598 s | CCNc1cc(C)nc(N2CCN(C(=O)C(C)C)CC2)n1
36 | 784 s | CCOc1ccccc1NC(=O)C1CCN(S(=O)(=O)c2cn(CC)cn2)CC1
37 | 555 s | CCN1CCN(C(=O)CCC2CCCN(c3cc(NC4CC4)ncn3)C2)CC1 (configuration not stated)
38 | 1000 s | Cc1ccc(N2C(=O)CN(S(=O)(=O)c3ccccc3)CC2(C)C(=O)NC2CCCCC2)cc1 (configuration not stated)
39 | 788 s | COc1cccc(CNC(=O)C2CCCN2S(=O)(=O)c2cc3c(cc2C)NC(=O)C(C)O3)c1 (configuration not stated)
40 | 1090 s | Cc1nc(-c2csc(S(=O)(=O)N3CCCC(C(=O)Nc4ccc(C(C)C)cc4)C3)c2)no1 (configuration not stated)
41 | 931 s | Cn1c(=O)sc2cc(S(=O)(=O)N3CCC(C(=O)NC4CCCCCCC4)CC3)ccc21
42 | 648 s | O=C(Cc1cccc(F)c1)N1CC(N2CC(C(=O)N3CCCC3)CC2=O)C1 (configuration not stated)
43 | 902 s | O=C(c1nnc(-c2ccc(S(=O)(=O)N3CCCC3)cc2)o1)N1CCCCCC1
44 | 1090 s | CCOc1nc2ccccc2nc1N1CCCC(C(=O)NCc2ccccc2)C1 (configuration not stated)
45 | 784 s | CCOC(=O)CNC(=O)C1CCN(c2ncccc2S(=O)(=O)N2CCCCC2)CC1
46 | 797 s | Cc1ccccc1Oc1nccn2c(=O)n(CC(=O)NCc3ccccc3)nc12

The next lines start with the compound.

Row | SMILES | RP-LC retention time
47 | Cc1nc(-c2ccccc2)nc2c1CCC(=O)N2Cc1cccnc1 | 673 s
48 | O=C(O)CCn1nnc2ccccc2c1=O | 606 s
49 | Cc1cc(C)cc(OCCNC(=O)Nc2cc(F)ccc2F)c1 | 992 s
50 | COc1cc(-c2nc(Cn3ccn4nc(-c5ccccc5)cc4c3=O)c(C)o2)cc(OC)c1OC | 990 s
51 | COc1cccc(-c2nnc(Cc3nc(-c4cccc(OC)c4OC)no3)o2)c1 | 923 s
52 | CC(C)(C)c1ccc(S(=O)(=O)Nc2cccc(C(=O)O)c2)cc1 | 810 s
53 | Cc1ccc(S(=O)(=O)n2nc(-c3ccc(C)c(C)c3)nc2N)cc1 | 1000 s
54 | O=S(=O)(c1cccn2c(SCc3ccc(F)cc3)nnc12)N1CCc2ccccc2C1 | 944 s
55 | Cc1cc(C(=O)Nc2ccc(Cl)cn2)c2ccccc2n1 | 694 s
56 | CCc1cccc(NC(=O)Cn2ccc3ccc(-c4nnc(C)o4)cc32)c1 | 798 s
57 | Cc1ccc(-n2cc3c(N4CCCC(C(=O)NCc5cc(F)cc(F)c5)C4)ncnc3n2)cc1 (configuration not stated) | 740 s
58 | O=C(NCc1ccco1)c1nn(-c2ccc(F)cc2)c2ccccc2c1=O | 872 s
59 | CCCOc1ccc(-c2nnc3sc(-c4ccncc4)nn23)cc1 | 642 s
60 | N#Cc1ccc(C(=O)N2CCN(c3cc(-c4ccc(F)cc4)[nH]n3)CC2)cc1 | 767 s
61 | CCOc1ccc(CC(=O)Nc2ccc(-c3nc(-c4ccccc4)co3)cc2)cc1OCC | 1150 s
62 | Cn1cc(C2=CCN(CC(=O)N3CCN(c4ccc(F)cc4)CC3)CC2)cn1 | 612 s
63 | CCn1cc(CCNS(=O)(=O)Cc2ccccc2Cl)c2cccnc21 | 804 s
64 | O=C1COc2ccccc2N1Cc1nc(-c2ccc(F)c(Cl)c2)no1 | 1090 s
65 | Cc1ccc(-c2cc(-c3nc4c5ccccc5ncn4n3)[nH]n2)c(C)c1 | 900 s
66 | Cc1ccc(C2(O)C(=O)N(CC(=O)Nc3ccc(F)cc3F)c3ccccc32)cc1 (configuration not stated) | 715 s
67 | O=C1Cc2cc(NC(=O)NCCCc3ccccc3)ccc2N1 | 657 s

Row | SMILES | RP-LC retention time
68 | CCS(=O)(=O)N1CC(c2nc(-c3ccc(F)cc3)no2)C2(CCOCC2)C1 (configuration not stated) | 877 s
69 | Cc1cc(Nc2nc(N[C@@H](C)c3ccc(F)cc3)c(C#N)cc2F)n[nH]1 | 877 s
70 | COc1cc([C@@H]2c3cc4c(cc3[C@@H](O[C@@H]3O[C@@H]5COC(c6cccs6)O[C@H]5[C@H](O)[C@H]3O)[C@H]3COC(=O)[C@H]23)OCO4)cc(OC)c1O (some centres not stated) | 780 s
71 | Cc1ccc(-n2c(=O)c3sccc3n(Cc3nc(-c4cccc(C)c4)no3)c2=O)cc1 | 1060 s
72 | Cc1ccc(-c2csc(NC(=O)Cc3ccc(Cl)cc3)n2)cc1 | 1120 s
73 | Cc1noc2nc(C)n(CC(=O)NCc3cccc(Br)c3)c(=O)c12 | 805 s
74 | Cc1nc(C(=O)Nc2ccc(C)c(F)c2)c(C)o1 | 946 s
75 | Cc1noc([C@@H]2CC(F)(F)CN2C(=O)c2coc(C)n2)n1 | 694 s
76 | O=C(Nc1ccccc1Br)N[C@@H]1CCN(c2ccc(C(F)(F)F)cn2)C1 | 937 s
77 | Cn1ccc2c(cc(C(=O)NCc3ccc(C(F)(F)F)cc3)n2C)c1=O | 754 s
78 | CCCCS(=O)(=O)N1CCC(F)(c2nc(-c3ccccc3)no2)CC1 | 1080 s
79 | COc1ccc(Cn2cccc2-c2nc(-c3ccncc3)no2)cc1 | 1080 s
80 | CC(C)Cc1csc(-c2csc(S(=O)(=O)NCc3cccs3)c2)n1 | 1150 s
81 | Cc1ccc(Nc2c(-c3cc(Br)ccc3O)nc3ncccn23)cc1 | 1050 s
82 | Fc1ccccc1-c1ccc(CNCc2cccs2)o1 | 706 s
83 | Cc1ccn2cc(-c3ccc(NS(=O)(=O)c4ccc(F)cc4)cc3)nc2n1 | 649 s
84 | O=C(CSC1CCc2ccccc2NC1=O)NCc1ccc(Cl)cc1Cl (configuration not stated) | 868 s
85 | Cc1ccc(-c2nnc(-c3ccc(Cl)c(S(=O)(=O)N4CCOCC4)c3)o2)cc1 | 1030 s
86 | O=C(Nc1ccc(Oc2ccc(NC(=O)Nc3ccc([N+](=O)[O-])cc3)cc2)cc1)Nc1ccc([N+](=O)[O-])cc1 | 1110 s
87 | Cc1ccccc1OCc1nc(-c2ccc3c(c2)oc(=O)n3C(C)C)no1 | 1160 s
